# Source: US5756505A, “N-acylpiperazine derivative, antibacterial drug and anti-ulcer drug” (Shiseido Co., Ltd., priority 1995, dated 1998)
# Where two headings read alike, the source gives them in different places.
# Columns and labels:
# [1] = MTT: Cell Damaging and Protecting Effect Test; type: cell-based, rabbit (male Japanese White); details: rabbit, gastric mucosal cells
# Description: (§1) MTT: Cell Damaging and Protecting Effect Test
# (§2) It is confirmed that there is no toxicity in cell level. Those having a toxicity in cell level are inappropriate as an anti-ulcer drug.
# (§3) A male Japanese White rabbit (2.5 to 3 kg) was anesthetized to death by Nembutal™ and, immediately thereafter, its stomach was removed. The greater curvature of the stomach was incised so as to remove the stomach contents therefrom. After the mucosal surface was washed with HBSS (Hanks' Balanced Salt Solution), the stomach in ice-cooled HBSS was transferred to a laboratory. Then, after the pyloric antrum was removed, the gastric corpus mucosa was separated by a spatula and then minced into 2 to 3 mm^3 pieces in BME (Basal Medium Eagle). Thereafter, these pieces were shaken at 120 to 130 cycles/minute for 15 minutes at 37° C. in BME 60ml containig 280 U/ml of dispase and 30 to 50 U/ml of collagenase. Here, the concentration of collagenase was appropriately changed for each lot in view of the state of cells. The pieces were washed twice with EBSS (Earle's Balanced Salt Solution) containing 1 mM of EDTA and then shaken in MEM (Minimum Essential Medium) containing 1 mM of EDTA at 37° C. for 5 minutes. Subsequently, they were shaken in the dispase and collagenase having the same concentrations as those mentioned above for 15 minutes so as to remove the supernatant and then further shaken at 37° C. for 50 to 60 minutes at 120 to 130 cycles/minute. Then, after being washed twice with HBSS, Ham F12 containing 2% of Ultrocer G™ was used to attain the concentration of 1×10^6 cells/ml. Thus formed suspension was dispensed in each well of a 96-well plate by 200 μl. The plate was incubated in the atmosphere composed of 5% CO2 and 95% air at 37° C. for three days so as to attain a confluent state and then subjected to MTT assay.
# (§4) The sample compound was dissolved in DMSO so as to attain a concentration of 10^-2 M and then diluted with HBSS containing 2% of Ultrocer G™ so as to attain a final concentration of 10^-4 M. To each group, which 8 wells were used for, 10 μl of MTT reagent were added immediately after 100 μl of the medium in each well were exchanged for same volume of the resulting solution of the sample compound. After being incubated in an atmosphere composed of 5% CO2 and 95% air at 37° C. for 4 hours, thus formed solution was centrifuged and then its supernatant was discarded. Subsequently, 100 μl of 100% ethanol were added to the residue so as to dissolve MTT formazan. Then, the absorbance (OD: 570 to 630) was measured by a microplate reader. This method utilizes a phenomenon in which MTT is changed to MTT formazan only by mitochondria of living cells so as to change color.
# (§5) The cell damaging or cell protecting effect of the sample compound at the final concentration of 10^-4 M was expressed as cell damaging rate (%) as follows:
# (§6) cell damaging rate (%)=[1-(absorbance in sample group/absorbance in control group)]×100
# (§7) Accordingly, the smaller value is better in the cell damaging rate.
# gastric mucosa = assay: PD: Gastric Mucosal Integrity Test; type: in vivo, rat (male Crj:SD); details: rat, 100 mg/kg into ex vivo chamber, 60 minutes
# Procedure: PD: Gastric Mucosal Integrity Test
# In this case, since the sample compound has a necrotizing effect, it is inappropriate as an anti-ulcer medicament.
# Therefore, the gastric mucosal potential difference (PD), which reflects the integrity of the gastric mucosa, is measured so as to confirm that the sample compound has no damasing effect on gastric mucosa, which is toxicity at gastric mucosal level.
# Male Crj:SD rats (7 to 8-week-old) was fasted overnight, but allowed free access to water, and then, under urethane anesthesia (1.25 g/kg, i.p.), fixed to a cork board on its back. The abdomen of each rat was incised, and a small incision was made in the forestomach. Then, the inside of the stomach was washed with physiological saline heated at 37° C. From the forestomach, along the greater curvature thereof, the stomach was incised without damaging blood vessels. After the height of the cork board was adjusted on a jack, the stomach was mounted on ex vivo chamber. The area of the gastric mucosa exposed to the inside of this chamber was 2.5 cm^2. The inside of the chamber was perfused with physiological saline warmed at 37° C. by micro tube pump. By using an agar bridge containing 3M KCl, the potential difference between the chamber and the abdominal cavity was measured by a PD meter. Here, the rectal temperature was measured to control the body temperature during the experiment. After the PD was sufficiently stabilized, the perfusate was stopped and then 100 mg/10 ml/kg of the sample compound dissolved or suspended in an aqueous solution of 0.5% sodium carboxymethyl cellulose or 0.05% Tween 80 were administered into the chamber, while PD was recorded for 60 minutes. To a control, the vehicle was administered.
# The change in PD during 60 minutes after the administration of 100 mg/kg of the sample compound was collectively studied and, with reference to the positive control, classified into 5 levels as follows:
# 5: Same as the control with no recognizable damage at all.
# 3: Though a weak decrease in PD and a possibility of a weak mucosal damage is recognized, there is no substantial problem.
# 2: Medium degree of decrease in PD is found and a mucosal damage is recognized.
# 1: Heavy degree of decrease in PD is found and a remarkable mucosal damage is recognized.
# [2] = system: gastric corpus mucosa cells; assay: MTT: Cell Damaging and Protecting Effect Test; type: cell-based, rabbit (male Japanese White); details: final concentration 10^-4 M, 4 hours; smaller value is better; 100 µM
# Description: as §1, §2, §3, §4, §5, §6, §7
# acid secretion = assay: VOL, TAO: Acid Secretion Inhibition Test In Vivo; design: species or system rat (male Crj:Donryu); details: rat, 100 mg/kg oral, histamine-stimulated, pylorus ligated
# Procedure: VOL, TAO: Acid Secretion Inhibition Test In Vivo
# Inhibitory effect on acid secretion in vivo is confirmed.
# Male Crj:Donryu rats (7-week-old) were fasted overnight but allowed free access to water. In each group, 8 to 10 of these rats were used under urethane anesthesia (1.25 g/kg). The sample compound dissolved or suspended in an aqueous solution of 0.5% sodium carboxymethylcellulose or 0.05% Tween 80 was orally administered (100 mg/10 ml/kg). 30 minutes later, the abdomen of each was incised and the pylorus was ligated. 30 minutes after the ligation, 30 mg/kg of histamine dissolved in physiological saline were subcutaneously administered and, 3 hours thereafter, the rat was sacrificed with carbon dioxide. Immediately thereafter, each stomach was removed and the gastric contents were collected and each volume was determined. The total acid output was determined by titration of the gastric juice with 0.1N NaOH.
# With respect to the gastric juice volume (VOL) and the total acid output (TAO), the effects obtained when 100 mg/kg of the sample compound had been administered were expressed as their respective inhibitory rates (%) as follows:
# each inhibitory rate (%)=[1-(value in sample group/value in control group)]×100
# [3] = final concentration 10^-4 M, 4 hours, smaller value is better, read-out: MTT: cell damaging rate
SMILES,"cytotoxicity at 4 h, 100 µM [1, 3] [%]","PD: change in gastric mucosal potential difference, level (gastric mucosa)",other results
"COc1ccc(COc2ccc(C(=O)N3CCN(CC(C)C)CC3)cc2CC(C)C)cc1 [Example 14, 1-isobutyl-4-[3-isobutyl-4-(4-methoxybenzyloxy)benzoyl]piperazine]",11,,
"CC(C)Cc1cc(C(=O)N2CCN(CC(C)C)CC2)ccc1OCc1ccc(Cl)cc1 [Example 17, 1-[4-(4-chlorobenzyloxy)-3-isobutylbenzoyl]-4-isobutylpiperazine]",-18,4,
"CC(C)Cc1cc(C(=O)N2CCN(C(=O)C(C)C)CC2)ccc1OCc1ccc(F)cc1 [Example 6, 1-[4-(4-fluorobenzyloxy)-3-isobutylbenzoyl]-4-isobutyrylpiperazine]",-29,,
"CC(C)Cc1cc(C(=O)N2CCN(CC(C)C)CC2)ccc1OCc1ccc(F)c(F)c1 [Example 26, 1-[4-(3,4-difluorobenzyloxy)-3-isobutylbenzoyl]-4-isobutylpiperazine]",,,MTT: cell damaging rate [2]: 29%
"CC(C)Cc1cc(C(=O)N2CCN(CC(C)C)CC2)ccc1OCc1ccc(F)c(F)c1.Cl [Example 23, 1-[4-(3,4-difluorobenzyloxy)-3-isobutylbenzoyl]-4-isobutylpiperazine hydrochloride]",28,,TAO: total acid output inhibitory rate (acid secretion): 9%; VOL: gastric juice volume inhibitory rate (acid secretion): -9%
"CC(C)Cc1cc(C(=O)N2CCN(CC(C)C)CC2)ccc1OCc1ccc(F)cc1.O=C(O)C(=O)O [Example 25, 1-[4-(4-fluorobenzyloxy)-3-isobutylbenzoyl]-4-isobutylpiperazine oxalate]",,,TAO: total acid output inhibitory rate (acid secretion): 47%; VOL: gastric juice volume inhibitory rate (acid secretion): 19%; MTT: cell damaging rate [2]: -28%
"CC(C)Cc1cc(C(=O)N2CCN(CC(C)C)CC2)ccc1OCc1ccccc1 [Example 16, 1-(4-benzyloxy-3-isobutylbenzoyl)-4-isobutylpiperazine]",-98,5,
"CC(C)Cc1cc(C(=O)N2CCN(CCO)CC2)ccc1OCc1ccc(F)cc1 [Example 9, 1-[4-(4-fluorobenzyloxy)-3-isobutylbenzoyl]-4-(2-hydroxyethyl)piperazine]",26,2,
"CC(C)Cc1cc(C(=O)N2CCN(CC(C)C)CC2)ccc1OCc1ccccc1F [Example 18, 1-[4-(2-fluorobenzyloxy)-3-isobutylbenzoyl]-4-isobutylpiperazine]",,3,MTT: cell damaging rate [2]: -33%
"CC(C)CN1CCN(C(=O)c2ccc(OCc3ccc(F)cc3)cc2)CC1 [Example 5, 1-[4-(4-fluorobenzyloxy)benzoyl]-4-isobutylpiperazine]",,,MTT: cell damaging rate [2]: -84%
"CC(C)Cc1cc(CN2CCN(CC(C)C)CC2)ccc1OCc1ccc(F)cc1.Cl.Cl [Example 20, 1-[4-(4-fluorobenzyloxy)-3-isobutylbenzyl]-4-isobutylpiperazine dihydrochloride]",45,2,TAO: total acid output inhibitory rate (acid secretion): 43%; VOL: gastric juice volume inhibitory rate (acid secretion): 12%
"CC(C)Cc1cc(C(=O)N2CCN(CC(C)C)CC2)ccc1OCc1ccc(F)cc1F [Example 27, 1-[4-(2,4-difluorobenzyloxy)-3-isobutylbenzoyl]-4-isobutylpiperazine]",,,MTT: cell damaging rate [2]: -119%
"CC(C)Cc1cc(C(=O)N2CCN(CC(C)C)CC2)ccc1OCc1ccc([N+](=O)[O-])cc1.Cl [Example 13, 1-isobutyl-4-[3-isobutyl-4-(4-nitrobenzyloxy)benzoyl]piperazine hydrochloride]",-66,2,TAO: total acid output inhibitory rate (acid secretion): 18%; VOL: gastric juice volume inhibitory rate (acid secretion): 3%
"CC(C)CN1CCN(C(=O)c2ccc(OCc3ccc(F)cc3)c([N+](=O)[O-])c2)CC1.Cl [Example 8, 1-[4-(4-fluorobenzyloxy)-3-nitrobenzoyl]-4-isobutylpiperazine hydrochloride]",-65,2,TAO: total acid output inhibitory rate (acid secretion): 16%; VOL: gastric juice volume inhibitory rate (acid secretion): 8%
"CC(C)Cc1cc(CC(=O)N2CCN(CC(C)C)CC2)ccc1OCc1ccccc1 [Example 15, 1-(4-benzyloxy-3-isobutylphenylacetyl)-4-isobutylpiperazine]",,,"cytotoxicity at 4 h, 100 µM ([1]; MTT: cell damaging rate): -55%"
"CC(C)CN1CCN(C(=O)c2ccc(OCc3ccccc3)cc2)CC1 [Example 3, 1-(4-benzyloxybenzoyl)-4-isobutylpiperazine]",-16,5,
"C=C(C)Cc1cc(C(=O)N2CCN(CC(C)C)CC2)ccc1OCc1ccc(F)cc1.Cl [Example 4, 1-[4-(4-fluorobenzyloxy)-3-methallylbenzoyl]-4-isobutylpiperazine hydrochloride]",-67,,
"Cc1cccc(COc2ccc(C(=O)N3CCN(CC(C)C)CC3)cc2CC(C)C)c1F.Cl [Example 12, 1-[4-(2-fluoro-3-methylbenzyloxy)-3-isobutylbenzoyl]-4-isobutylpiperazine hydrochloride]",-15,2,
